BigSolDB 2.1

NC(=O)c1ccc(N)cc1
solubility (mole fraction)
Conditions | 283.15 K | 288.15 K | 293.15 K | 298.15 K | 303.15 K | 308.15 K | 313.15 K | 318.15 K | 323.15 K
in acetone | 0.00745 | 0.00795 | 0.0086 | 0.00956 | 0.0105 | 0.0118 | 0.0137 | 0.0154 | 0.0176
in acetonitrile | 0.00193 | 0.00204 | 0.00225 | 0.00251 | 0.00298 | 0.0036 | 0.00447 | 0.00546 | 0.00661
in ethanol | 0.00621 | 0.00649 | 0.00697 | 0.00777 | 0.00883 | 0.0104 | 0.0121 | 0.0141 | 0.016
in ethyl acetate | 0.000539 | 0.000606 | 0.000697 | 0.000845 | 0.00103 | 0.00131 | 0.00166 | 0.00207 | 0.00257
in isobutanol | 0.00239 | 0.00249 | 0.00263 | 0.0028 | 0.00309 | 0.00342 | 0.00384 | 0.00422 | 0.00467
in isopropanol | 0.00331 | 0.00354 | 0.00393 | 0.00431 | 0.00487 | 0.00577 | 0.00677 | 0.00819 | 0.00965
in methanol | 0.0121 | 0.0132 | 0.0145 | 0.0163 | 0.0188 | 0.0214 | 0.0246 | 0.0287 | 0.0328
in methyl acetate | 0.00147 | 0.00154 | 0.0017 | 0.00194 | 0.00217 | 0.00247 | 0.00274 | 0.00311 | 0.00347
in n-butanol | 0.00257 | 0.00274 | 0.00292 | 0.00313 | 0.00345 | 0.00375 | 0.00421 | 0.00468 | 0.00514
in n-butyl acetate | 0.000749 | 0.000819 | 0.000974 | 0.00121 | 0.00152 | 0.00186 | 0.00229 | 0.00275 | 0.00331
in n-propanol | 0.00401 | 0.00411 | 0.0044 | 0.00496 | 0.00585 | 0.00711 | 0.00839 | 0.01 | 0.0117
in water | 0.000858 | 0.000983 | 0.00118 | 0.00146 | 0.00184 | 0.00229 | 0.00281 | 0.00364 | 0.00449
